Results as given in patent publication EP0089635A2, “Phospholipid derivatives, process for preparation thereof and pharmaceutical composition of the same” (FUJISAWA PHARMACEUTICAL CO., LTD., priority 1982, dated 1983).

Tests used:
Format in all cases: in vivo, BALB/c mice
Fibrosarcoma Meth-A = assay: Test Method A: antitumor effect on intradermally inoculated Meth-A tumor, intratumoral injection of test compound; settings: 100 µg/mouse intratumorally once daily Day 1 to Day 4; for Tumor growth inhibition (%) *b: (1-T/C)x100 of mean tumor diameter on Day 21; for Mean tumor size (mm) *a: female BALB/c mice, 1 x 10^5 Meth-A cells intradermally, mean diameter of tumor on Day 21; for Ratio of tumor free mice *c: groups of six mice
Description: Fibrosarcoma Meth-A (hereinafter referred to as Meth-A) was successively transferred every 7 days into BALB/c mice by intraperitoneal inoculation of the ascites cells thereof and the Meth-A in the ascites cells as harvested 6 days after the inoculation was used as tumor cells.
Each of the BALB/c mice was inoculated intradermally with 1 x 10^5 Meth-A cells in 0.05 ml Hanks solution.
(§1) The control group was given with a vehicle alone in the same way.
The antitumor effectiveness of the test compound was estimated by tumor growth inhibition : (1-T/C)x100. • T : Mean diameter of the growing tumor of the medicated group on Day 21. • C : Mean diameter of the growing tumor of the control group on Day 21.

[1] = Test Method A: body weight of the treated mice; settings: 100 µg/mouse intratumorally once daily Day 1 to Day 4; for Body weight of mice (g) Day 0 *d: initial day
Description: Groups of six female BALB/c mice, aged 12 weeks and weighing 19 - 21 g were used. Test compound was dissolved in 0.5% methylcellulose saline solution, and was intratumorally injected to each of the mice in doses of 100 µg/mouse once daily from Day 1 to Day 4 postimplant. Body weight was checked on initial day and Day 4.

Fibrosarcoma Meth A = assay: Test Method B: survival of mice inoculated intrapleurally with Meth A, injection of test compound into pleural cavity; set-up: dose or concentration left out as unconfirmed; settings: for Anti-tumor activity (%) *f: T/C x 100 of mean survival time, into pleural cavity three times; for Mean survival time: female BALB/c mice, Meth A cells intrapleurally, into pleural cavity three times (before 14 days, after 1 hour, after 3 days of tumor implantation)
Description: Groups of eight female BALB/c mice, aged 8-9 weeks and weighing 18.0-22.5 g were used.
Fibrosarcoma Meth A (hereinafter referred to as Meth A) was successively transferred every 7 days into BALB/c mice by intraperitoneal inoculation of the ascites cells thereof and the Meth A in the ascites cells as harvested 6 or 7 days after the inoculation was used as tumor cells.
Each of the BALB/c mice was inoculated intrapleurally with 5 x 10 Meth A cells in 0.1 ml Hanks solution.
Test compound was dissolved in phosphate buffer saline solution, and was injected into pleural cavity to each of the mice in doses of 100 pg/0.05 ml/mouse three times, i.e. before 14 days, after I hour and after 3 days of tumor implantation.
as §1
The antitumor activity of the test compound was estimated by comparing mean survival time of the two groups. • T : Mean survival time of the medicated group • C : Mean survival time of the control group

CCCCCCCCCCCCCCCCCCOCC(COP(=O)(O)OCCN1CCN(C)CC1)OC(N)=O (racemic) [Example 4, (rac)-l-O-Octadecyl-2-0-carbamoyl-glycerol-3-[2-(4-methyl-l-piperazinyl)ethyl]phosphate]
Tumor growth inhibition (%) *b (Fibrosarcoma Meth-A): 100% | Mean tumor size (mm) *a (Fibrosarcoma Meth-A): 0 mm | Ratio of tumor free mice *c (Fibrosarcoma Meth-A): 6/6 | Body weight of mice (g) Day 4 *e [1]: 20.2 ± 1.11 g | Body weight of mice (g) Day 0 *d [1]: 19.5 ± 0.60 g | Anti-tumor activity (%) *f (Fibrosarcoma Meth A): 236% | Mean survival time (Fibrosarcoma Meth A): 16.5 days

CCCCCCCCCCCCCCCCCCOCC(COP(=O)([O-])OCC[n+]1ccccc1)OC(=O)Nc1ccccc1 (racemic) [Example 2 - (4), (rac)-1-O-Octadecyl-2-O-phenylcarbamoyl-glycerol-3-[2-(l-pyridinio)ethyl]phosphate]
Anti-tumor activity (%) *f (Fibrosarcoma Meth A): 117% | Mean survival time (Fibrosarcoma Meth A): 7.0 days

CCCCCCCCCCCCCCCCCCOCC(COP(=O)([O-])OCC[n+]1ccccc1)OC(N)=O (racemic) [Example 3 - (4), (rac)-1-O-0ctadecyl-2-O-carbamoyl-glycerol-3-[2-(1-pyridinio)ethyl]phosphate]
Anti-tumor activity (%) *f (Fibrosarcoma Meth A): 536% | Mean survival time (Fibrosarcoma Meth A): 37.5 days

CCCCCCCCCCCCCCCCCCOCC(COP(=O)([O-])OCC[n+]1ccccc1)OC(=O)NC (racemic) [Example 1 - (4), (rac)-1-O-octadecyl-2-O-methylcarbamoyl-glycerol-3-[2-(1-pyridinio)ethyl]-phosphate]
Tumor growth inhibition (%) *b (Fibrosarcoma Meth-A): 100% | Mean tumor size (mm) *a (Fibrosarcoma Meth-A): 0 mm | Ratio of tumor free mice *c (Fibrosarcoma Meth-A): 6/6 | Body weight of mice (g) Day 4 *e [1]: 19.1 ± 1.68 g | Body weight of mice (g) Day 0 *d [1]: 18.3 ± 1.11 g
